Test results as given in ChEMBL document CHEMBL1143875, “Synthesis and structure-activity relationships of thiadiazole-derivatives as potent and orally active peroxisome proliferator-activated receptors alpha/delta dual agonists” (Bioorg Med Chem, 2008).
Active and inactive are the calls of the source. No cut-off for these calls is given here.

Assays:
[1] = Half life in ob/ob C57BL/6J-leptin deficient obese mouse at 1 mg/kg administered as multiple dose after 11 days; assay type: ADME, organism-based; set-up: dose 1 mg/kg; conditions: in vivo
[2] = target: T1, Peroxisome proliferator-activated receptor delta (Homo sapiens, UniProt Q03181); assay: Agonist activity at human PPARdelta-Gal4 in HEK293 cells by luciferase reporter assay; assay type: functional, cell-based
T1 sequence (Q03181 whole entry): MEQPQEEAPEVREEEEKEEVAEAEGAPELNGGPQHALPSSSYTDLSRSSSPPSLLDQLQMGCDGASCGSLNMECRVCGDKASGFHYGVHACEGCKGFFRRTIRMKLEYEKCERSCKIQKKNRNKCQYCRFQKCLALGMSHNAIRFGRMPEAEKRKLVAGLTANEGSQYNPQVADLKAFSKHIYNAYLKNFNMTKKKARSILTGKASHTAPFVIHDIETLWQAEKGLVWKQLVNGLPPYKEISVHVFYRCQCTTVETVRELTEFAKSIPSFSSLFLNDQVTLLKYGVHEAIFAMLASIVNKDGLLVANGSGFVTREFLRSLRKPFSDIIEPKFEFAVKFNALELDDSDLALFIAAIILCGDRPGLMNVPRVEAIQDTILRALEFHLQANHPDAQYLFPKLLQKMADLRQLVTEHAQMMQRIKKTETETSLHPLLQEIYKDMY

[3] = Cmax in ob/ob C57BL/6J-leptin deficient obese mouse at 3 mg/kg administered as multiple dose after 11 days; assay type: ADME, organism-based; set-up: dose 3 mg/kg; conditions: in vivo
[4] = target: T2, Glucocorticoid receptor (Homo sapiens) (UniProt P04150); assay: Activity at glucocorticoid receptor
T2 sequence (whole entry): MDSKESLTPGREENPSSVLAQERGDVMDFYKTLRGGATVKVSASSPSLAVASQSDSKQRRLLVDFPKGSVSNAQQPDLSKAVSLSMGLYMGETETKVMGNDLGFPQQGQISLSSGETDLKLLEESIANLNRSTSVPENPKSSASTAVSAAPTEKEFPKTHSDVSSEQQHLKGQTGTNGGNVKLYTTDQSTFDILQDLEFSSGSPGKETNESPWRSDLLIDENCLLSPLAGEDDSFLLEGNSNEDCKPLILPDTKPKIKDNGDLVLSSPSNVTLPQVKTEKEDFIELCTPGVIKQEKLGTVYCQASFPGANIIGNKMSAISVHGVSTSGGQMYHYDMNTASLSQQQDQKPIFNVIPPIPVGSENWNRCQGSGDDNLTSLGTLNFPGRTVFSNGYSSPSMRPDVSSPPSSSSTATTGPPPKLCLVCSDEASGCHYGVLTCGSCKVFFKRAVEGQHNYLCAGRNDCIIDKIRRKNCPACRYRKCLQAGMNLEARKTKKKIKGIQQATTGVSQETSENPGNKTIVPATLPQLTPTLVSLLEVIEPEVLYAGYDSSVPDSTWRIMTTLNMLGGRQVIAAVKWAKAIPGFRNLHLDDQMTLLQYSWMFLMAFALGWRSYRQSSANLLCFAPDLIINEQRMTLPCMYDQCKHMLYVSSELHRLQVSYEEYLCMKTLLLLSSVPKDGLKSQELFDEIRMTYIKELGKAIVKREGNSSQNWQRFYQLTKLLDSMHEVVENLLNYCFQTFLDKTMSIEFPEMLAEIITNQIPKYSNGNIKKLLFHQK

[5] = test system: Rattus norvegicus; assay: Decrease in total cholesterol level in hypercholesterolemic Sprague-Dawley rat serum at 0.1 to 1 mg/kg, po after 8 days; assay type: functional; conditions: dose mg/kg 0.1-1
[6] = test system: Mus musculus; assay: […] effect of ob/ob C57BL/6J-leptin deficient obese mouse assessed as reduction in serum glucose level at 0.1 to 3 mg/kg, po after 11 days; assay type: functional; set-up: scale not given: the % may be the effect or the level left; conditions: dose mg/kg 0.1-3
[7] = Half life in Sprague-Dawley rat at 3 mg/kg administered as multiple dose after 8 days; assay type: ADME, organism-based; set-up: dose 3 mg/kg; conditions: in vivo
[8] = Cmax in Sprague-Dawley rat at 0.1 mg/kg administered as multiple dose after 8 days; assay type: ADME, organism-based; set-up: dose 0.1 mg/kg; conditions: in vivo
[9] = Half life in ob/ob C57BL/6J-leptin deficient obese mouse at 3 mg/kg administered as single dose on day 11; assay type: ADME, organism-based; set-up: dose 3 mg/kg; conditions: in vivo
[10] = Half life in Sprague-Dawley rat at 1 mg/kg administered as multiple dose after 8 days; assay type: ADME, organism-based; set-up: dose 1 mg/kg; conditions: in vivo
[11] = test system: Mus musculus; assay: […] effect of ob/ob C57BL/6J-leptin deficient obese mouse assessed as reduction in serum insulin level at 0.1 to 3 mg/kg, po after 11 days; assay type: functional; set-up: scale not given: the % may be the effect or the level left; conditions: dose mg/kg 0.1-3
[12] = test system: Mus musculus; assay: […] effect of ob/ob C57BL/6J-leptin deficient obese mouse assessed as increase in liver weight at 0.1 to 3 mg/kg, po after 11 days; assay type: functional; conditions: dose mg/kg 0.1-3
[13] = Induction of ABCA1 gene expression in human skeletal muscle cells at 1000 nM by RT-PCR; assay type: functional
[14] = Cmax in Beagle dog at 10 mg/kg administered as multiple dose after 7 days; assay type: ADME, organism-based, Canis lupus familiaris; set-up: dose 10 mg/kg; conditions: in vivo
[15] = test system: Mus musculus; assay: Increase in hApoA1 level in po dosed hApoA1 transgenic mouse after 7 days; assay type: functional, organism-based
[16] = Cmax in Sprague-Dawley rat at 3 mg/kg administered as multiple dose after 8 days; assay type: ADME, organism-based; set-up: dose 3 mg/kg; conditions: in vivo
[17] = Half life in ob/ob C57BL/6J-leptin deficient obese mouse at 0.1 mg/kg administered as multiple dose after 11 days; assay type: ADME, organism-based; set-up: dose 0.1 mg/kg; conditions: in vivo
[18] = Cmax in ob/ob C57BL/6J-leptin deficient obese mouse at 3 mg/kg administered as single dose on day 11; assay type: ADME, organism-based; set-up: dose 3 mg/kg; conditions: in vivo
[19] = Induction of ABCA1 gene expression in human skeletal muscle cells at 1 nM by RT-PCR; assay type: functional
[20] = target: T3, Peroxisome proliferator-activated receptor alpha (Homo sapiens, UniProt Q07869); assay: Agonist activity at human PPARalpha-Gal4 in HEK293 cells by luciferase reporter assay; assay type: functional, cell-based
T3 sequence (Q07869 whole entry): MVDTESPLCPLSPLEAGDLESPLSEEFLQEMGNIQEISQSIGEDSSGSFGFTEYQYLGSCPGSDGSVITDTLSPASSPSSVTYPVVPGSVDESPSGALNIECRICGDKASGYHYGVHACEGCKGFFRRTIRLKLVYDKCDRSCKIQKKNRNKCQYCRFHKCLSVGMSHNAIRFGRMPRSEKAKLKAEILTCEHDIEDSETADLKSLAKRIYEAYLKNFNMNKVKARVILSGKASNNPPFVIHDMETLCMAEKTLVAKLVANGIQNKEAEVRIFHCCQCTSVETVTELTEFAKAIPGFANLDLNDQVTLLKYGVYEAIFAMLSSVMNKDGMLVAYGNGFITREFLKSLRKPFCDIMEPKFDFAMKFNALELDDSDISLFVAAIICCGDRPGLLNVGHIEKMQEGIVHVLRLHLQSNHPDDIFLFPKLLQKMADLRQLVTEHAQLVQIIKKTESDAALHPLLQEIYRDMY

[21] = AUC in Sprague-Dawley rat at 0.1 mg/kg administered as multiple dose after 8 days; assay type: ADME, organism-based; set-up: dose 0.1 mg/kg; conditions: plasma
[22] = test system: Rattus norvegicus; assay: Decrease in triglyceride level in po dosed hypercholesterolemic Sprague-Dawley rat serum after 8 days; assay type: functional, organism-based
[23] = test system: Mus musculus; assay: Increase in HDL cholesterol level in po dosed hApoA1 transgenic mouse after 7 days; assay type: functional, organism-based
[24] = Half life in ob/ob C57BL/6J-leptin deficient obese mouse at 0.3 mg/kg administered as multiple dose after 11 days; assay type: ADME, organism-based; set-up: dose 0.3 mg/kg; conditions: in vivo

half-life [1]: 5.2 h
EC50 [2]: 0.008 µM
Cmax [3]: 26.3 µg/mL
Activity [4]: inactive
half-life [7]: 7.1 h
Cmax [8]: 0.082 µg/mL
half-life [9]: 5.1 h
half-life [10]: 5.7 h
Cmax [14]: 10.1 µg/mL
Cmax [16]: 2 µg/mL
half-life [17]: 5.1 h
Cmax [18]: 19.3 µg/mL
EC50 [20]: 0.1 µM
AUC at 192 h [21]: 0.738 µg·h/mL
half-life [24]: 5 h
Compound: Cc1cc(SCc2nc(-c3ccc(Cl)c(Cl)c3)ns2)ccc1OC(C)(C)C(=O)O
Activity [5]: 263 mg/dL
Activity [6]: 52%
Activity [11]: 50%
Activity [12]: 65%
Fold change [13]: 4.8
Activity [15]: Dose-dependent effect
Fold change [19]: 1.5
Activity [22]: Dose-dependent effect
Activity [23]: Dose-dependent effect
